Earlier results in publication PMC4895201 (Journal of natural products, 2009).

Columns and labels:
[1] = tested on: breast and prostate xenografts; conditions: compared with KF (3)
[2] = tested on: epidermal growth factor receptor (ErbB family); conditions: early research

| Substance | in vivo efficacy against breast and prostate xenografts [1] | antitumor activity, in vitro and in vivo (various solid cell lines) | blockade of epidermal growth factor receptor (ErbB family) [2] |
| --- | --- | --- | --- |
| (4S)- methylhexanoic kahalalide F [isoKF (4)] | enhanced efficacy against breast and prostate xenografts | significant in vitro and in vivo antitumor activity against various solid cell lines | – |
| kahalalide F [KF (3)] | – | significant in vitro and in vivo antitumor activity against various solid cell lines | blocked the epidermal growth factor receptor (ErbB family) |
